Experiment [1] deals with EGFR (UniProt P00533).
Experiment [2] has as its target EGFR (human) (UniProt P00533). To be noted: kb.
Experiment [3] deals with PIK3CA (human) (UniProt P42336). Nature of the experiment: Antiproliferation of NZOV9 Cell Line Using Thymidine Depletion Assay.
Experiment [4] concerns the target EGFR (human) (UniProt P00533). The settings on record: A431.
Experiment [5] deals with ROCK2 (human) (UniProt O75116). Nature of the experiment: Assessment of ROCK2 Kinase Activity (Fluorescence Polarization Assay). (In general: In fluorescence polarisation assays a small probe gives low polarisation when free and higher when bound to something large.)
ROCK2 (human), sequence (O75116 whole entry, looked up): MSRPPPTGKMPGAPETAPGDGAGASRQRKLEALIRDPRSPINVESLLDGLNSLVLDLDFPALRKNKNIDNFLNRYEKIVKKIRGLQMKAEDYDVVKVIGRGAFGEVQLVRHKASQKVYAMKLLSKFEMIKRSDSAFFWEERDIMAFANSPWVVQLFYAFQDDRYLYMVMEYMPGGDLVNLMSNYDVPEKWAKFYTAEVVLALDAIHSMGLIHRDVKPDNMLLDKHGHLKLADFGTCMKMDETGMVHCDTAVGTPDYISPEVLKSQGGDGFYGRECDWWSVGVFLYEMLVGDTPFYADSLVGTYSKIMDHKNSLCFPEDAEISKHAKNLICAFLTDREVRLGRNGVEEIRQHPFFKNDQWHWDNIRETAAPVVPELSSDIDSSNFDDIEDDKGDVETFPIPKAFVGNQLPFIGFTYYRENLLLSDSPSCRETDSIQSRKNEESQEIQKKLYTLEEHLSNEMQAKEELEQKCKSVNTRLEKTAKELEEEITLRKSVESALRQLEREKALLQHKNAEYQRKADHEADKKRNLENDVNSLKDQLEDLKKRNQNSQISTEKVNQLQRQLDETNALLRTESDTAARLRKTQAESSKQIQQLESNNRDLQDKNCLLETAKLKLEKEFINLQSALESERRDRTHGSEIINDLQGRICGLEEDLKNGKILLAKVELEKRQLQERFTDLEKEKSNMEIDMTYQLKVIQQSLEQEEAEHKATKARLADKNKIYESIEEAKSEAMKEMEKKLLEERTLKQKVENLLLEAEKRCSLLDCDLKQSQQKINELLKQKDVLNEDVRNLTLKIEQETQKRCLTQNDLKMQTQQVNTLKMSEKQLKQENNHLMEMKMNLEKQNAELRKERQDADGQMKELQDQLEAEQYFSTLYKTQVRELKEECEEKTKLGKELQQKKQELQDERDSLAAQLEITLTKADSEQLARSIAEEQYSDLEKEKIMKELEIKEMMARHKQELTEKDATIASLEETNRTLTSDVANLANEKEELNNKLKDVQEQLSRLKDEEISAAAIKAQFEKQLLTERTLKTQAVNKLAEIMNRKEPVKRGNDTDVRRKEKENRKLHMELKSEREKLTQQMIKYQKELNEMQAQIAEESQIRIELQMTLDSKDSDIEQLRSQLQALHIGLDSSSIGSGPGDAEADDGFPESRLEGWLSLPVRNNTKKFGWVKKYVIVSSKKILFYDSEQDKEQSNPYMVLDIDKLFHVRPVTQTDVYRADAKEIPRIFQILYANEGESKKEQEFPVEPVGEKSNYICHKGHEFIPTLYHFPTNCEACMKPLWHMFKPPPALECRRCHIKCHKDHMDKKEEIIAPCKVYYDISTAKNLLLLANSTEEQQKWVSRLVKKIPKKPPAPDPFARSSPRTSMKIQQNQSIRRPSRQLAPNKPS
Experiment [6] concerns the target PIK3CA (human) (UniProt P42336). Nature of the experiment: Assessment of PI3K Dependent Phosphorylation of p-AKT(T308) in PC3 Cells. The settings on record: pc-3.
Experiment [7] concerns the target EGFR (human) (UniProt P00533). To be noted: a431.
The target of experiment [8] is EGFR (human) (UniProt P00533).
EGFR (human), sequence (P00533 whole entry, looked up): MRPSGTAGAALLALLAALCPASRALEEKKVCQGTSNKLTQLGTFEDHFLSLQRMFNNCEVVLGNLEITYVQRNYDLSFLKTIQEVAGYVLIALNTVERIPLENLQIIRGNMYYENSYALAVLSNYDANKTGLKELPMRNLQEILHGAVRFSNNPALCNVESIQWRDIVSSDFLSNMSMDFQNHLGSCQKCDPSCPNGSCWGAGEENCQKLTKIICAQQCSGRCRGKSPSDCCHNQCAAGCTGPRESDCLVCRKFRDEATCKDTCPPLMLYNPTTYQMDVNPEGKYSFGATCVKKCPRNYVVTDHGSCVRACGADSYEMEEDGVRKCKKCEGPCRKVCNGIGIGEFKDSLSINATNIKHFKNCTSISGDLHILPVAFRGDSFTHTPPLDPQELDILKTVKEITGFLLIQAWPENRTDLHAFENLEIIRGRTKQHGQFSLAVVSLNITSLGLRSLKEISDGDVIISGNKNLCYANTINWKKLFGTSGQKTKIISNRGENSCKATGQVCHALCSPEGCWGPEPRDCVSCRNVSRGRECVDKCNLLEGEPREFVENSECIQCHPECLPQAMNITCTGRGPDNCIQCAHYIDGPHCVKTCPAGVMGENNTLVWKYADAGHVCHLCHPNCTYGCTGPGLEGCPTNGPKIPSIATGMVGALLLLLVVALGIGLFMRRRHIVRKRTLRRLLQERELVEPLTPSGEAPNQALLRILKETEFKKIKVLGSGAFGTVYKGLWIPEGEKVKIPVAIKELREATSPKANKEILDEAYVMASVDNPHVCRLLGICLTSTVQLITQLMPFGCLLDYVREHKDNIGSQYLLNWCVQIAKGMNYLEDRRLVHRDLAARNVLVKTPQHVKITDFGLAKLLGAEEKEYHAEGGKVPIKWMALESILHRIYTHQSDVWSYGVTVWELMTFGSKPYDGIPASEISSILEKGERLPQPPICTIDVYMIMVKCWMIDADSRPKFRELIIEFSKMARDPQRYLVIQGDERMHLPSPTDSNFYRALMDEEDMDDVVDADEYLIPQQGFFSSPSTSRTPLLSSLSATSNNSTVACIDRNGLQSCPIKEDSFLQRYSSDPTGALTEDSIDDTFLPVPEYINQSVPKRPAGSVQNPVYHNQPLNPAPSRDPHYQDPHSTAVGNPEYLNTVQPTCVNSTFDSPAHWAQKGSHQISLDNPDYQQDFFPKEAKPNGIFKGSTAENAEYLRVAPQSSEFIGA
The target in experiment [9] is EGFR (human) (UniProt P00533). This is another data set of the same source.
In experiment [10] the target is CDK2 (human) (UniProt P24941). Nature of the experiment: Enzyme Assay.
Experiment [11] deals with CDK2 (human) (UniProt P24941). Nature of the experiment: Enzyme Assay. The source holds these as a separate data set.
In experiment [12] the target is EGFR (human) (UniProt P00533). This is another data set of the same source.
Experiment [13] has as its target MAPK14 (human) (UniProt Q16539). Nature of the experiment: Inhibition of TNF-alpha Production in LPS Stimulated Whole Blood. The settings on record: blood cells.
In experiment [14] the target is EGFR (murine) (UniProt P00533). The settings on record: nih 3t3.
For experiment [15], the target named is MAPK14 (UniProt Q16539). Nature of the experiment: Assessment of MAPK14 Kinase Activity.
MAPK14, sequence (Q16539 whole entry, looked up): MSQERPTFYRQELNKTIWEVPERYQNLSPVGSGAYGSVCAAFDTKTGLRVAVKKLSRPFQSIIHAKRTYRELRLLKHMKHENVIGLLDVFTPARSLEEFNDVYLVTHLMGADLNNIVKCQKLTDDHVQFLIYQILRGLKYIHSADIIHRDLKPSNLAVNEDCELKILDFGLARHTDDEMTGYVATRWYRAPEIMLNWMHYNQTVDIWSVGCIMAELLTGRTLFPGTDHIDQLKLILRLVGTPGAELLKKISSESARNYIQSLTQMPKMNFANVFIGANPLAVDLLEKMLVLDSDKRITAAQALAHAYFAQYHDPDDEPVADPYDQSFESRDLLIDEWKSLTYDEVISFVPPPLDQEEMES
Experiment [16] addresses PIK3CA (human) (UniProt P42336). Nature of the experiment: Assessment of PIK3CA Kinase Activity in NZB5 Cells.
Experiment [17] has as its target EGFR (UniProt P00533). This is another data set of the same source.
Experiment [18] addresses MAPK14 (UniProt Q16539). Nature of the experiment: p38-alpha Inhibition.
Experiment [19] addresses ROCK2 (human) (UniProt O75116). Nature of the experiment: Assessment of ROCK2 Kinase Activity (ProQinase Setup).

Where only a bound is given, the exact number is not on record here.

PIK3CA (human), sequence (P42336 whole entry, looked up): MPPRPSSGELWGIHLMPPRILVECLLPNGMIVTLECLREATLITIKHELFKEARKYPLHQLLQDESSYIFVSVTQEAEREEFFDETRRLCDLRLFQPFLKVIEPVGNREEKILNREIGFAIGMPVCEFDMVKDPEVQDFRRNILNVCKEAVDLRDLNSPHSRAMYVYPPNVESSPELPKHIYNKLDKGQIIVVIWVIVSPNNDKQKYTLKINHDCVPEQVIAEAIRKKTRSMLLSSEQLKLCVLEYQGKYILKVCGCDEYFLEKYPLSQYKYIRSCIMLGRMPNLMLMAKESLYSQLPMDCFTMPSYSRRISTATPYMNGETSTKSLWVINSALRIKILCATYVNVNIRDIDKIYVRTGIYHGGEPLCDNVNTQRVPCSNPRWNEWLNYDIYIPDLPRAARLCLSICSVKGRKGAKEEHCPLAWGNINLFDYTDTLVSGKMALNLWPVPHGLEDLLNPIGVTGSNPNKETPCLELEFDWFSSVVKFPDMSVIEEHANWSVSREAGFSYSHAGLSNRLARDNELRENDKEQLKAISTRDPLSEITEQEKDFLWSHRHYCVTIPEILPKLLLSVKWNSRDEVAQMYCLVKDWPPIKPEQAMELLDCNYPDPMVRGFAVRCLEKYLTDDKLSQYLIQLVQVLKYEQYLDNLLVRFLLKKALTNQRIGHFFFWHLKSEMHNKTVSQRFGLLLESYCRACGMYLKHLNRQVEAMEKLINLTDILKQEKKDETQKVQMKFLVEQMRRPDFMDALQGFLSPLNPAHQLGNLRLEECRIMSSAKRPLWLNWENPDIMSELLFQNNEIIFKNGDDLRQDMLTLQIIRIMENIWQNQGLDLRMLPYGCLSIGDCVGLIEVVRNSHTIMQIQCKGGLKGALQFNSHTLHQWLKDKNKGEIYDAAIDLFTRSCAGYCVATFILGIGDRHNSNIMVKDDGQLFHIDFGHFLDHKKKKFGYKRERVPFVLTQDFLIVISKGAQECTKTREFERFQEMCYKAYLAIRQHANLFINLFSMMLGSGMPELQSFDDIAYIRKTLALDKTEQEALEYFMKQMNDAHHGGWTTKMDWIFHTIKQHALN
MAPK14 (human), sequence (Q16539 whole entry, looked up): as the sequence (Q16539 whole entry, looked up) above

The IC50 is the point on the concentration scale where inhibition reaches its midpoint. In turn, `Cc1cccc(N(C)c2ncnc3[nH]ncc23)c1` gave an IC50 in experiment [1] greater than 50 µM.

As for `COC(=O)N1CCC(Oc2cc3c(Nc4cccc(Cl)c4F)ncnc3cc2OC)CC1`, the IC50 in [2] worked out at 35 nM. In experiment [3], `Cc1ccc([N+](=O)[O-])cc1S(=O)(=O)N(C)N=Cc1cn(C)c2ccccc12` had an IC50 greater than 20 µM. `C[C@H](Nc1[nH]cnc2c3ccccc3nc1-2)c1ccccc1` yielded an IC50 in experiment [4] greater than 100 µM. In experiment [5], `CCCOC(=O)c1cc(-c2cc(C(=O)Nc3ccncc3)ccc2C(C)N)c[nH]1` (centres undefined) returned an IC50 of less than 100 nM. With `C[C@H](Nc1ncnc2ccccc12)c1ccccc1`, in experiment [4], the IC50 was greater than 10 µM. `CSc1cnc(-c2ccc(NC(=O)Nc3ccc(N4CCOCC4=O)cc3)cc2)nc1N1CCOCC1` returned an IC50 in [6] of 141 nM. In general, EC50 refers to the concentration needed to bring the measured effect to its halfway point. Read a high EC50 as a less potent agent. For `O=C(C=C1CCNC1)Nc1ccc2ncnc(Nc3cccc(Br)c3)c2c1`, the EC50 in experiment [7] was determined as 13 µM. Regarding `O=C(C=C1CCNCC1)Nc1ccc2ncnc(Nc3ccc4[nH]ccc4c3)c2c1`, in experiment [7], the EC50 amounted to 0.3 µM. With `O=C(/C=C/CN1CC2CC1CO2)Nc1cc2c(Nc3ccc(F)c(Cl)c3)ncnc2cc1OCC1CC1` (centres undefined), in experiment [8], the IC50 came to 1.5 nM. This counts as single-digit nanomolar. On to `O=C(O)C1=Cc2c(Cl)ncnc2NCC1`, for which the half-inhibitory concentration (IC50) in experiment [9] was 0.036 µM. Consider `COc1cc2ncnc(Nc3ccc(F)c(Cl)c3F)c2cc1OC1CCN(C(=O)OCCN2CCCC2)CC1`, for which, in [2], the IC50 came out at 15 nM.

For the compound `CC[C@H](CO)Nc1cc(NCc2ccccc2)c2ncn(C(C)C)c2n1`, the IC50 was determined as 300 nM in experiment [10] and 180 nM in experiment [11]. Compound `CCOc1cnc(-c2ccc(NC(=O)Nc3ccc(NS(C)(=O)=O)cc3)cc2)nc1N1CCOCC1` had an IC50 in experiment [6] of less than 10 nM. Compound `COC(=O)CCc1c(SSc2c(CCC(=O)OC)c3ccccc3n2C)n(C)c2ccccc12` yielded an IC50 in [12] greater than 100 µM.

Take `C=CCOCCn1c(SC)nc(-c2ccc(F)cc2)c1-c1ccnc(NC(C)=O)c1`: the IC50 in experiment [13] is greater than 100 µM. In experiment [8], `O=C(/C=C/CN1CC2CC1CO2)Nc1cc2c(Nc3ccc(F)c(Cl)c3)ncnc2cc1O[C@H]1CCOC1` (some centres undefined) registered an IC50 of 0.5 nM. Compound `O=C1C(CO)=C(CO)C(=O)c2c(O)ccc(O)c21` registered an IC50 in experiment [9] of 15 µM. This counts as double-digit micromolar. In experiment [8], `O=C(/C=C/N1CC2CC1CO2)Nc1cc2c(Nc3ccc(F)c(Cl)c3)ncnc2cc1O[C@H]1CCOC1` (some centres undefined) had an IC50 of 0.5 nM. As for `O=c1[nH]c2ccc(Sc3ccccc3)nc2[nH]1`, the IC50 in [14] was greater than 100 µM. `CS(=O)(=O)N1CCC(Nc2ncc3c(n2)N2CCN=C2C(c2ccccc2Cl)=C3)CC1` came in with an IC50 in [15] of 2.7 nM. Turning to `Cc1ccc([N+](=O)[O-])cc1S(=O)(=O)N(C)N=Cc1cnn2cccc(Br)c12`, the IC50 in [16] was greater than 20 µM. Regarding `C[C@@H](Nc1ncnc2ccccc12)c1ccccc1`, in experiment [4], the IC50 was determined as 0.086 µM. Regarding `O[C@H]1CC[C@H](Nc2ncc3c(n2)N2CCN=C2N(c2ccccc2Cl)C3)CC1`, in [15], the IC50 turned out to be 6620 nM.

In turn, `Cc1cccc(Nc2ncnc3ccc(N(C)C(=O)NCCCl)cc23)c1` came in with an IC50 in [17] of 1690 nM. `COC(=O)c1cc2c(-c3cc(C(=O)Nc4ccncc4)ccc3C(C)N)cccc2[nH]1` (centres undefined): the IC50 in [5] lay in the range of 100 to 1000 nM. `CCOC(=O)Nc1nc2ccc(Oc3ccccc3)nc2[nH]1`: the IC50 in [14] was greater than 100 µM. Regarding `O=C1C2=C(C(=O)c3c(O)ccc(O)c31)[C@@H](O)[C@@H](O)[C@@H](O)C2`, the IC50 in experiment [9] was 13 µM. Consider `CC[C@@H](CO)Nc1cc(NCc2ccccc2)c2ncn(C(C)C)c2n1`, for which the results for the IC50 in [10] and in [11] were 420 nM and 310 nM, respectively. In experiment [15], `CC(C)(CO)Nc1ncc2cc(-c3ccccc3Cl)c3nccn3c2n1` showed an IC50 of 18.8 nM. The compound `CC(C)Nc1ncc2cc(-c3ccccc3Cl)c3nccn3c2n1` came in with an IC50 in experiment [15] of 1.4 nM. Take `COn1c(-c2ccncc2)c(-c2ccc(F)cc2)c2ncccc21`: the IC50 in experiment [18] was found to be 68 nM. Turning to `CC[C@H](CO)Nc1cc(NCc2ccc(-c3ccccn3)cc2)c2ncn(C(C)C)c2n1`, the results for the IC50 in [10] and in [11] were 360 nM and 250 nM, respectively. Take `Cc1ccc(S(=O)(=O)CCOC(=O)c2cccc(-c3cc(C(=O)Nc4ccncc4)ccc3C(C)N)c2)cc1` (centres undefined): the IC50 in [5] lay within 100 to 1000 nM. `CN(C)CCCn1c(SSc2c(C(=O)Nc3ccccc3)c3ccccc3n2CCCN(C)C)c(C(=O)Nc2ccccc2)c2ccccc21` had an IC50 in experiment [12] of 26 µM. `NCc1ccc(C(=O)Nc2ccncc2F)cc1-c1cccc(CC(=O)OCC2CCCC2)c1` registered an IC50 in [19] of 100 to 1000 nM.

(Values after the Kinase Knowledgebase extract (Sharma et al. 2016).)
